Measurements published in patent US20240185961A1, “DRUG MATERIAL INTERACTIONS USING QUARTZ CRYSTAL MICROBALANCE SENSORS” (Janssen Biotech, Inc., priority 2021, published 2024).

Columns and labels:
Format in all cases: physicochemical
[1] = QCM-D adsorption to PVC sensor surface; conditions: protein 3 formulation, PS20-poor solution, average, 95% CI±33.7%
Method: (§1) The experiments detailed below were informed using quartz sensors coated with various surface compositions such as PVC, PE, PES, PVDF, PC, or PP. These sensors can be pre and post-run cleaned, for example, by way of a 30 min soak in 1% Deconex 11 Solution, a minimum 2 hr soak in DI water (usually overnight), followed by a rinse with DI water and 99% ethanol three times and then blown dry by medical grade nitrogen gas. The sensors were then inserted into a QCM unit as was sample solution, diluent (e.g., NS), and water. Runs were configured and data and procedures were collected. Experimental data was then transformed from frequency to mass data using, for example, the above equations. […]
(§2) In one experimental run, over 60 sensorgrams (i.e., the outputs of the QCM-D instruments) were analyzed and transformed from frequency to mass adsorption data in the aforementioned example. Here the mass adsorbed during the sample period was of primary interest, and the mass during this period was measured by subtracting the average mass recorded and calculated during the diluent period where an ionic liquid had effect on resonance (period 2 above/520 in FIG. 5) from the average mass shift recorded and calculated during the sample period (period 3 above/530 in FIG. 5). […]

[2] = QCM-D adsorption to PES sensor surface; conditions: protein 3 formulation, PS20-poor solution, average, 95% CI±5.2%
Method: as §1, §2

[3] = QCM-D adsorption, PS20 only runs, PVC and PES sensor surfaces pooled; conditions: all at the same concentration, protein 3 experiments, 95% CI±19.77 ng/sq cm
Method: as §1, §2

PS20 contribution to mass of layer at the surface [1]: 35.56% | PS20 contribution to mass of layer at the surface [2]: 12.22% | average mass contribution, PS20 only runs [3]: 40.20 ng/sq cm
Substance: polysorbate 20 [PS20]
